Converted amounts (≈) assume the structure as drawn. The source made the active and inactive calls. The rule behind the calls is not given here.
Assays:
[1] = test system: Mus musculus; experiment: Anxiolytic-like activity in Swiss albino mouse at 2.5 mg/kg, ip by four plate test; type: functional, organism-based
[2] = target: T1, cAMP and cAMP-inhibited cGMP 3',5'-cyclic phosphodiesterase 10A (Homo sapiens, UniProt Q9Y233); experiment: Inhibition of PDE10A (unknown origin) at 10 uM preincubated for 20 mins followed by substrate addition and measured after 1 hr by PEDlight AMP detection reagent based luminescence assay relative to control; conditions: time 80.0 min
T1 sequence (Q9Y233 whole entry): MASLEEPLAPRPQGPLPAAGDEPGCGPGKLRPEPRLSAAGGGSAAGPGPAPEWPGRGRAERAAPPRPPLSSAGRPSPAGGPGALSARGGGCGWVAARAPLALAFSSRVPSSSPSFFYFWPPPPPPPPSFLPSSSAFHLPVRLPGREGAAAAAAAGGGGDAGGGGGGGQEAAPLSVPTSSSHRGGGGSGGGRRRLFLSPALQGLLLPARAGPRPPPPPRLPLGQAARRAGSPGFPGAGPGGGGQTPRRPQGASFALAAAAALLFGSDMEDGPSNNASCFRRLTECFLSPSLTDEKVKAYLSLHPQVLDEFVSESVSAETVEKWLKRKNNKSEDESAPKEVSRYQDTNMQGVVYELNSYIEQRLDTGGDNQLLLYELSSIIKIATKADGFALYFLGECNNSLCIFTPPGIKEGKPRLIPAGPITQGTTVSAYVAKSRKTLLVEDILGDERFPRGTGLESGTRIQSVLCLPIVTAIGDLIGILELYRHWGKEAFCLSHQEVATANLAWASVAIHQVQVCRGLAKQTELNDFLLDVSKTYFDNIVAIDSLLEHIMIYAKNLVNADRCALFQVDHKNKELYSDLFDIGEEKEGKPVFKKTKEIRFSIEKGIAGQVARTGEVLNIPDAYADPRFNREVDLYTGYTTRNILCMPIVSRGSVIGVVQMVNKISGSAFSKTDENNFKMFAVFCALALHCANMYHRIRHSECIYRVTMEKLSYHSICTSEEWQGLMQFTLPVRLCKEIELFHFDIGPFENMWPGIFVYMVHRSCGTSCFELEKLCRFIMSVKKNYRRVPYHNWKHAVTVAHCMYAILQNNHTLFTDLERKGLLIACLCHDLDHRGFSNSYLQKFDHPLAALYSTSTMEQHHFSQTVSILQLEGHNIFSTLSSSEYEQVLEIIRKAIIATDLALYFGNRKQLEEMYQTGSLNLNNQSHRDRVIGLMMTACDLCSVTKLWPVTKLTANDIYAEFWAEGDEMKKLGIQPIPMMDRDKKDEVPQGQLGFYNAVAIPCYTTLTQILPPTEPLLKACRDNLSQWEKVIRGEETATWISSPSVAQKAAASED

[3] = target: T2, 5-hydroxytryptamine receptor 1A (Homo sapiens, UniProt P08908); experiment: Displacement of [3H]-[…] from human 5-HT1A receptor expressed in CHO-K1 cells membrane by scintillation counter analysis; type: cell membranes
T2 sequence (P08908 whole entry): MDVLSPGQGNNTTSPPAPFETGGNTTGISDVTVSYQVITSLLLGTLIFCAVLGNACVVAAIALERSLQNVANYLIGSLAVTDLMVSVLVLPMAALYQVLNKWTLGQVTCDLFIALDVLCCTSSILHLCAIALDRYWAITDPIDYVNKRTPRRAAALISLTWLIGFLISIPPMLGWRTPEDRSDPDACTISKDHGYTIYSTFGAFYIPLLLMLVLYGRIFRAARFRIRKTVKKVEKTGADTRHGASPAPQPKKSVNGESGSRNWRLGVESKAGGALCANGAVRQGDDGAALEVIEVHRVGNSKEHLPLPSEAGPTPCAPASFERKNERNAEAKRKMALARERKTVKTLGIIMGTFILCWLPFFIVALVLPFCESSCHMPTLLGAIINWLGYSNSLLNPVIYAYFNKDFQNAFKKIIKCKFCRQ

[4] = target: 5-hydroxytryptamine receptor 7 (Homo sapiens, UniProt P34969); experiment: Displacement of [3H]-5-CT from human 5-HT7 receptor expressed in CHO-K1 cells membrane by scintillation counter analysis; type: cell membranes
5-hydroxytryptamine receptor 7, sequence (P34969 whole entry): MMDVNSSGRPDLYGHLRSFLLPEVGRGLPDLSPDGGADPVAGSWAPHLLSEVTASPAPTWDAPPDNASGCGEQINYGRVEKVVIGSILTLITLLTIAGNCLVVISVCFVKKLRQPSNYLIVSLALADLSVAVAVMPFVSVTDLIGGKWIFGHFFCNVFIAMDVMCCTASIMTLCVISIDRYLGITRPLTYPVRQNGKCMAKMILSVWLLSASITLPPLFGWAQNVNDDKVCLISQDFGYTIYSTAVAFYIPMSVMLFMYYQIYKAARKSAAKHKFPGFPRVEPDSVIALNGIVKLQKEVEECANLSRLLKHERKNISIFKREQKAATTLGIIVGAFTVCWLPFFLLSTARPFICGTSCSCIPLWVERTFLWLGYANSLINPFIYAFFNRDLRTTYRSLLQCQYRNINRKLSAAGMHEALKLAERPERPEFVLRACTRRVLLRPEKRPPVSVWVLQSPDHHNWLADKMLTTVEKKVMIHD

[5] = test system: Mus musculus; experiment: Antidepressant activity in Swiss albino mouse assessed as reduction in immobility time at 2.5 mg/kg, ip measured for last 4 mins of 6 mins test by forced swim test; type: functional; parameters: scale not given: the % may be the effect or the level left; conditions: 0.1 h
[6] = test system: Rattus norvegicus; experiment: Pro-cognitive activity in MK-801-induced memory impaired Wistar rat assessed as recognition of novel location by measuring discrimination index at 0.3 to 3 mg/kg, ip preincubated for 30 mins followed by MK-801 addition for 30 mins prior to T1 phase by novel object location test; type: functional, organism-based; conditions: dose 0.3-3 mg/kg, time 60.0 min
[7] = test system: Mus musculus; experiment: Anxiolytic-like activity in Swiss albino mouse at 1.25 to 2.5 mg/kg, ip by four plate test; type: functional, organism-based; conditions: dose 1.25-2.5 mg/kg
[8] = test system: Rattus norvegicus; experiment: Pro-cognitive activity in MK-801-induced memory impaired Wistar rat assessed as recognition of novel location by measuring discrimination index at 1 mg/kg, ip preincubated for 30 mins followed by MK-801 addition for 30 mins prior to T1 phase by novel object location test; type: functional, organism-based; conditions: time 60.0 min
[9] = test system: Mus musculus; experiment: Antidepressant activity in Swiss albino mouse assessed as reduction in immobility time at 5 mg/kg, ip measured for last 4 mins of 6 mins test by forced swim test; type: functional, organism-based
[10] = Aqueous solubility of compound in PBS buffer at pH 7.4 by UV absorbance based analysis; type: physicochemical
[11] = target: T1, cAMP and cAMP-inhibited cGMP 3',5'-cyclic phosphodiesterase 10A; experiment: Inhibition of PDE10A (unknown origin) preincubated for 20 mins followed by substrate addition and measured after 1 hr by PEDlight AMP detection reagent based luminescence assay

In the case of `COc1cc2ncnc(N3CCC(CN4CCN(c5cccc(C(F)(F)F)c5)CC4)C3)c2cc1OC` (stereo not given), the Activity [1] is reported as “Active”, the inhibition [2] is reported as 3% and the Ki [3] is reported as 20.9 nM. It also gave a Ki [4] of 229 nM.
In the case of `COc1cc2ncnc(N3CC[C@@H](Oc4cnc5ccccc5n4)C3)c2cc1OC`, the Activity [5] is reported as 30%, the Activity [6] is reported as “Active” and the Activity [7] is reported as “Active”.
Work on `COc1cc2ncnc(N3CCC(CN4CCN(c5ccc(Cl)c(Cl)c5)CC4)C3)c2cc1OC` (stereo not given) yielded an inhibition [2] of 2%, a Ki [3] of 245 nM and a Ki [4] of 355 nM.
Work on `c1cc(N2CCN(Cc3nc4ccccc4[nH]3)CC2)c2[nH]ncc2c1` yielded a Ki [3] greater than 1000 nM and a Ki [4] greater than 1000 nM.
In the case of `COc1cc2ncnc(N3CCC(CN4CCN(c5cccc(Cl)c5Cl)CC4)C3)c2cc1OC` (stereo not given), the inhibition [2] is reported as 6%, the Ki [3] is reported as 10.7 nM and the Ki [4] is reported as 347 nM.
`c1cc(N2CCN(c3cccc4cn[nH]c34)CC2)c2ncncc2c1` showed an inhibition [2] of 3%, a Ki [3] greater than 1000 nM and a Ki [4] greater than 1000 nM.
With `COc1cc2ncnc(N3CCC(CN4CCN(c5ccccc5)CC4)C3)c2cc1OC` (stereo not given) the Activity [1] was “Active”, the Activity [8] was “Active” and the Activity [9] was “Active”. The inhibition [2] was 3%, the Ki [3] was 32.4 nM and the Ki [4] was 251 nM.
Compound `COCCc1ccc(OCC(O)CNC(C)C)cc1` (stereo not given) [METOPROLOL] has a solubility [10] of 200 µM (≈ 53.5 µg/mL).
Work on `COc1cc2ncnc(N3CCN(Cc4nc5ccccc5[nH]4)CC3)c2cc1OC` yielded an inhibition [2] of 3%, a Ki [3] greater than 1000 nM and a Ki [4] greater than 1000 nM.
Compound `O=c1[nH]c2cccc(N3CCN(Cc4cnc5ccccc5n4)CC3)c2[nH]1` has an inhibition [2] of 9%, a Ki [3] of 83.2 nM and a Ki [4] greater than 1000 nM.
Compound `c1ccc2nc(CN3CCN(c4cccc5cn[nH]c45)CC3)ccc2c1` has a Ki [3] greater than 1000 nM and a Ki [4] greater than 1000 nM.
In the case of `COc1cc2ncnc(N3CCC(CN4CCc5ccccc5C4)C3)c2cc1OC` (stereo not given), the IC50 [11] is reported as 105000 nM, the inhibition [2] is reported as 40% and the Ki [3] is reported as greater than 1000 nM. It also gave a Ki [4] of 603 nM.
With `COc1cc2ncnc(N3CCC(CN4CCN(c5ncccn5)CC4)C3)c2cc1OC` (stereo not given) the inhibition [2] was 11%, the Ki [3] was 251 nM and the Ki [4] was greater than 1000 nM.

Source: ChEMBL document CHEMBL5143617 (Eur J Med Chem, 2022)
